PubChem BioAssay AID192 (DTP/NCI, 2004)
Values joined by “and” are separate entries in the source; they are usually repeats but may differ in a detail not shown here. Equal entries are not always repeated. Inconclusive results and toxic doses are left out.

System: BDF1 mice, B16 melanoma ip, median survival T/C
Assay: NCI In Vivo Anticancer Drug Screen. Data for tumor model B16 Melanoma (intraperitoneal) in B6D2F1 (BDF1) mice
Settings: endpoint: median survival time, higher = longer survival
Summary of the method: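 Each result divides a survival or tumor-size measurement in the compound-treated group by the same measurement in the vehicle group.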

[1] = dose: 25.0 mg/kg/injection, schedule: Q01DX009 (ip), vehicle: saline with Tween-80
[2] = dose: 100.0 mg/kg/injection, schedule: Q01DX009 (ip), vehicle: saline with Tween-80
[3] = dose: 100.0 mg/kg/injection, schedule: Q01DX009 (ip), vehicle: Klucel (hydroxypropylcellulose) (HPC)
[4] = dose: 50.0 mg/kg/injection, schedule: Q01DX009 (ip), vehicle: Klucel (hydroxypropylcellulose) (HPC)
[5] = dose: 200.0 mg/kg/injection, schedule: Q01DX009 (ip), vehicle: Klucel (hydroxypropylcellulose) (HPC)

## Cc1cc2ccc(OC(=O)c3ccc(N=C(N)N)cc3)cc2oc1=O
dose: 12.5 mg/kg/injection, schedule: Q01DX009 (ip), vehicle: saline with Tween-80
  T/C: 91 % of control
[1]
  T/C: 100 % of control
[2]
  T/C: 86 % of control
dose: 100.0 mg/kg/injection, schedule: Q04DX003 (ip), vehicle: saline with Tween-80
  T/C: 92 % of control
dose: 200.0 mg/kg/injection, schedule: Q04DX003 (ip), vehicle: saline with Tween-80
  T/C: 95 % of control
dose: 400.0 mg/kg/injection, schedule: Q04DX003 (ip), vehicle: saline with Tween-80
  T/C: 95 % of control

## CCO/C=C1\SC(=S)N(c2ccccc2C)C1=O
[1]
  T/C: 92 % of control
dose: 50.0 mg/kg/injection, schedule: Q01DX009 (ip), vehicle: saline with Tween-80
  T/C: 90 % of control
[2]
  T/C: 91 % of control

## COc1cccc2c1C(=O)c1c(O)c3c(c(O)c1C2=O)C[C@@](O)(/C(CO)=N/NC(=O)c1ccc(Cl)c(Cl)c1)C[C@@H]3OC1CC(N)C(O)C(C)O1 (some centres not stated)
dose: 2.5 mg/kg/injection, schedule: Q01DX001 (ip), vehicle: other
  T/C: 119 % of control
dose: 10.0 mg/kg/injection, schedule: Q01DX001 (ip), vehicle: water
  T/C: 111 % of control and 252 % of control
dose: 20.0 mg/kg/injection, schedule: Q01DX001 (ip), vehicle: other
  T/C: 247 % of control
dose: 20.0 mg/kg/injection, schedule: Q01DX001 (ip), vehicle: water
  T/C: 102 % of control
dose: 40.0 mg/kg/injection, schedule: Q01DX001 (ip), vehicle: water
  T/C: 250 % of control
dose: 80.0 mg/kg/injection, schedule: Q01DX001 (ip), vehicle: water
  T/C: 105 % of control

## COC(=O)C1C2CC(C3OC23)C1C(=O)OC (configuration not stated)
dose: 100.0 mg/kg/injection, schedule: Q04DX003 (ip), vehicle: Klucel (hydroxypropylcellulose) (HPC)
  T/C: 94 % of control
dose: 200.0 mg/kg/injection, schedule: Q04DX003 (ip), vehicle: Klucel (hydroxypropylcellulose) (HPC)
  T/C: 100 % of control
dose: 400.0 mg/kg/injection, schedule: Q04DX003 (ip), vehicle: Klucel (hydroxypropylcellulose) (HPC)
  T/C: 96 % of control

## NC(=O)c1cc(N2CC2)c([N+](=O)[O-])cc1[N+](=O)[O-]
dose: 5.0 mg/kg/injection, schedule: Q01DX009 (ip), vehicle: saline
  T/C: 104 % of control
dose: 10.0 mg/kg/injection, schedule: Q01DX009 (ip), vehicle: saline
  T/C: 109 % of control
dose: 20.0 mg/kg/injection, schedule: Q01DX009 (ip), vehicle: saline
  T/C: 95 % of control

## O=C(O)c1ccc(C(=O)O)c(C(=O)O)c1.[NH-]C1CCCCC1[NH-].[Pt+2]
dose: 0.19 mg/kg/injection, schedule: Q01DX009 (ip), vehicle: sodium bicarbonate
  T/C: 151 % of control
dose: 0.39 mg/kg/injection, schedule: Q01DX009 (ip), vehicle: sodium bicarbonate
  T/C: 118 % of control
dose: 0.4 mg/kg/injection, schedule: Q01DX009 (ip), vehicle: sodium bicarbonate
  T/C: 116 % of control
dose: 0.78 mg/kg/injection, schedule: Q01DX009 (ip), vehicle: sodium bicarbonate
  T/C: 185 % of control
dose: 0.8 mg/kg/injection, schedule: Q01DX009 (ip), vehicle: other
  T/C: 165 % of control
dose: 1.56 mg/kg/injection, schedule: Q01DX009 (ip), vehicle: other
  T/C: 181 % of control
dose: 1.56 mg/kg/injection, schedule: Q01DX009 (ip), vehicle: sodium bicarbonate
  T/C: 158 % of control and 159 % of control
dose: 1.6 mg/kg/injection, schedule: Q01DX009 (ip), vehicle: other
  T/C: 157 % of control
dose: 1.6 mg/kg/injection, schedule: Q01DX009 (ip), vehicle: sodium bicarbonate
  T/C: 161 % of control
dose: 3.12 mg/kg/injection, schedule: Q01DX009 (ip), vehicle: other
  T/C: 169 % of control
dose: 3.2 mg/kg/injection, schedule: Q01DX009 (ip), vehicle: sodium bicarbonate
  T/C: 168 % of control
dose: 4.8 mg/kg/injection, schedule: Q01DX009 (ip), vehicle: sodium bicarbonate
  T/C: 169 % of control
dose: 6.25 mg/kg/injection, schedule: Q01DX009 (ip), vehicle: other
  T/C: 171 % of control

## NNC(=S)N/N=C/c1ccc([N+](=O)[O-])s1
dose: 25.0 mg/kg/injection, schedule: Q01DX009 (ip), vehicle: Klucel (hydroxypropylcellulose) (HPC)
  T/C: 88 % of control
[3]
  T/C: 89 % of control

## Cc1ccccc1N=Nc1c(N)ccc2ccccc12
[4]
  T/C: 110 % of control
[3]
  T/C: 106 % of control
[5]
  T/C: 106 % of control

## O=[N+]([O-])c1cc([N+](=O)[O-])c(Nc2cccc3ccccc23)c([N+](=O)[O-])c1
[4]
  T/C: 92 % of control
[3]
  T/C: 103 % of control
[5]
  T/C: 97 % of control
